Reference: the supplement of paper PMC11208160

Assay: recombinant barcode read abundance after kanamycin selection (control-corrected) (log10(CPM+1)); higher = more efficient recombination; sequences stand for … in AGTGCAGAGAAAATCGGCCAGTTTTCTCTGCCTGCAGTCCGCATGCCGT…AGATTTATGCAGCGGACTGCCTTTCTCCCAAAGTGATAAACCGGACAGTATCATGGACCGGTTTTCCCGGTAATCCGTATTTGCAAGGTTGGTTTCACT; site = the 11-nt target
How it was run: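 For this pooled screen, each oligo contained a promoter, a target, a barcode and the J23119-driven first 104 bases of the bridge RNA. Gibson cloning placed it into a vector supplying the remaining 73 bp and a T7-inducible recombinase, and the pool was co-electroporated into E. coli with a donor plasmid. Recombination efficiency is derived from barcode counts per million at recombinant junctions after averaging and control correction, and is expressed on a log scale as log10(CPM+1), with selection on chloramphenicol/ampicillin/kanamycin plus 0.1 mM IPTG against a chloramphenicol/ampicillin LB agar control.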
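Further: IS621 recombinase and bridge RNA in Escherichia coli cells.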

CTCGGTTCTTGGGTTCTAACCTGTTGCCT (site CTCGGTACTTG)
recombinant barcode read abundance (log10): 0.128

CTCGGTTCTTGGGTTCTAACCTGTTGCCT (site CTCGGTTCTAG)
recombinant barcode read abundance (log10): 1.41

CTCGTAACTTGGGTTCTAACCTGTTGCCT (site CTCGTAACTAG)
recombinant barcode read abundance (log10): 0.361

CTCGTAACTTGGGTTCTAACCTGTTGCCT (site CTCGTCACTAG)
recombinant barcode read abundance (log10): 0.0602

CTCGTAACTTGGGTTCTAACCTGTTGCCT (site CTCGTGACTAG)
recombinant barcode read abundance (log10): 0.123

CTCGTAACTTGGGTTCTAACCTGTTGCCT (site CTCGTTACTAG)
recombinant barcode read abundance (log10): 1.13

CTCTACACTTGGGTTCTAACCTGTTGCTG (site CTCGACACTCA)
recombinant barcode read abundance (log10): 0.116

CTCTACACTTGGGTTCTAACCTGTTGCTG (site CTCTACACTCA)
recombinant barcode read abundance (log10): 1.13

CTCTACTCTTGGGTTCTAACCTGTTGCCT (site CTCTACTCTAG)
recombinant barcode read abundance (log10): 2.02

CTCTACTCTTGGGTTCTAACCTGTTGCCT (site TTCTACTCTAG)
recombinant barcode read abundance (log10): 0.0366

CTCTAGACTTGGGTTCTAACCTGTTGCTG (site CTCAAGACTCC)
recombinant barcode read abundance (log10): 0.0495

CTCTAGACTTGGGTTCTAACCTGTTGCTG (site CTCTAGACTCA)
recombinant barcode read abundance (log10): 1.82

CTCTAGGCTTGGGTTCTAACCTGTTGCCT (site CTCTAGGCTAG)
recombinant barcode read abundance (log10): 0.0135

CTCTAGGCTTGGGTTCTAACCTGTTGCCT (site CTCTCGGCTAG)
recombinant barcode read abundance (log10): 0.186

CTCTAGGCTTGGGTTCTAACCTGTTGCCT (site CTCTGGGCTAG)
recombinant barcode read abundance (log10): 0.202

CTCTAGGCTTGGGTTCTAACCTGTTGCCT (site CTCTTGGCTAG)
recombinant barcode read abundance (log10): 0.13

CTCTCATCTTGGGTTCTAACCTGTTGCCT (site CTCTCATCTAA)
recombinant barcode read abundance (log10): 0.125

CTCTCATCTTGGGTTCTAACCTGTTGCCT (site CTCTCATCTAG)
recombinant barcode read abundance (log10): 0.149

CTCTCGTCTTGGGTTCTAACCTGTTGCCT (site CTCTCGTCTAA)
recombinant barcode read abundance (log10): 0.11

CTCTCGTCTTGGGTTCTAACCTGTTGCCT (site CTCTCGTCTAC)
recombinant barcode read abundance (log10): 0.119

CTCTCGTCTTGGGTTCTAACCTGTTGCCT (site CTCTCGTCTAG)
recombinant barcode read abundance (log10): 0.944

CTCTCGTCTTGGGTTCTAACCTGTTGCCT (site CTCTCGTCTAT)
recombinant barcode read abundance (log10): 0.0858

CTCTCTTCTTGGGTTCTAACCTGTTGCCT (site CTCTCTCCTAG)
recombinant barcode read abundance (log10): 0.0216

CTCTCTTCTTGGGTTCTAACCTGTTGCCT (site CTCTCTTCTAG)
recombinant barcode read abundance (log10): 0.114

CTCTGAGCTTGGGTTCTAACCTGTTGCAG (site ACTGCTCCTAG)
recombinant barcode read abundance (log10): 0.0584

CTCTGAGCTTGGGTTCTAACCTGTTGCAG (site CTCTGAGCTCT)
recombinant barcode read abundance (log10): 0.538

CTCTGCTCTTGGGTTCTAACCTGTTGCTT (site CACTCCTCTAA)
recombinant barcode read abundance (log10): 0.0518

CTCTGCTCTTGGGTTCTAACCTGTTGCTT (site CTCTGCTCTAA)
recombinant barcode read abundance (log10): 0.245

CTCTGTCCTTGGGTTCTAACCTGTTGCTG (site CTCTGTCCTCA)
recombinant barcode read abundance (log10): 0.374

CTCTGTCCTTGGGTTCTAACCTGTTGCTG (site GCTGAGACTAC)
recombinant barcode read abundance (log10): 0.0997

CTCTTCCCTTGGGTTCTAACCTGTTGCTT (site CTATTCCCTCA)
recombinant barcode read abundance (log10): 0.155

CTCTTCCCTTGGGTTCTAACCTGTTGCTT (site CTCTTCCCTAA)
recombinant barcode read abundance (log10): 0.594

CTCTTGTCTTGGGTTCTAACCTGTTGCTG (site CTCGTGTCTCT)
recombinant barcode read abundance (log10): 0.0114

CTCTTGTCTTGGGTTCTAACCTGTTGCTG (site CTCTTGTCTCA)
recombinant barcode read abundance (log10): 1.01

CTGAGAGCTTGGGTTCTAACCTGTTGCCT (site CAGAGAGCTAG)
recombinant barcode read abundance (log10): 0.319

CTGAGAGCTTGGGTTCTAACCTGTTGCCT (site CCGAGAGCTAG)
recombinant barcode read abundance (log10): 0.058

CTGAGAGCTTGGGTTCTAACCTGTTGCCT (site CGGAGAGCTAG)
recombinant barcode read abundance (log10): 0.156

CTGAGAGCTTGGGTTCTAACCTGTTGCCT (site CTGAGAGCTAG)
recombinant barcode read abundance (log10): 1.61

CTGAGCCCTTGGGTTCTAACCTGTTGCAT (site CGGAGCCCTCT)
recombinant barcode read abundance (log10): 0.0964

CTGAGCCCTTGGGTTCTAACCTGTTGCAT (site CTGAGCCCTAT)
recombinant barcode read abundance (log10): 1.09

CTGAGGACTTGGGTTCTAACCTGTTGCCT (site ATGAGGACTAG)
recombinant barcode read abundance (log10): 0.0813

CTGAGGACTTGGGTTCTAACCTGTTGCCT (site CTGAGGACTAG)
recombinant barcode read abundance (log10): 1.29

CTGAGGACTTGGGTTCTAACCTGTTGCCT (site GTGAGGACTAG)
recombinant barcode read abundance (log10): 0.0454

CTGAGGACTTGGGTTCTAACCTGTTGCCT (site TTGAGGACTAG)
recombinant barcode read abundance (log10): 0.325

CTGATCACTTGGGTTCTAACCTGTTGCCT (site CTGATAACTAG)
recombinant barcode read abundance (log10): 0.0217

CTGATCACTTGGGTTCTAACCTGTTGCCT (site CTGATCACTAG)
recombinant barcode read abundance (log10): 1.03

CTGATCACTTGGGTTCTAACCTGTTGCCT (site CTGATGACTAG)
recombinant barcode read abundance (log10): 0.0708

CTGATCACTTGGGTTCTAACCTGTTGCCT (site CTGATTACTAG)
recombinant barcode read abundance (log10): 0.202

CTGCACCCTTGGGTTCTAACCTGTTGCAG (site CTGCACCCTCT)
recombinant barcode read abundance (log10): 0.477

CTGCACCCTTGGGTTCTAACCTGTTGCAG (site GCGCACCCTCT)
recombinant barcode read abundance (log10): 0.0743

CTGCATACTTGGGTTCTAACCTGTTGCCT (site CAGCATACTAG)
recombinant barcode read abundance (log10): 0.17

CTGCATACTTGGGTTCTAACCTGTTGCCT (site CCGCATACTAG)
recombinant barcode read abundance (log10): 0.217

CTGCATACTTGGGTTCTAACCTGTTGCCT (site CGGCATACTAG)
recombinant barcode read abundance (log10): 0.0131

CTGCATACTTGGGTTCTAACCTGTTGCCT (site CTGCATACTAG)
recombinant barcode read abundance (log10): 0.86

CTGCGCCCTTGGGTTCTAACCTGTTGCCT (site CTGAGCCCTAG)
recombinant barcode read abundance (log10): 0.0517

CTGCGCCCTTGGGTTCTAACCTGTTGCCT (site CTGCGCCCTAG)
recombinant barcode read abundance (log10): 1.1

CTGCGCCCTTGGGTTCTAACCTGTTGCCT (site CTGGGCCCTAG)
recombinant barcode read abundance (log10): 0.249

CTGCGCCCTTGGGTTCTAACCTGTTGCCT (site CTGTGCCCTAG)
recombinant barcode read abundance (log10): 0.567

CTGCGTGCTTGGGTTCTAACCTGTTGCCT (site CAGCGTGCTAG)
recombinant barcode read abundance (log10): 0.503
